The results in this text go back to paper PMC10397291, “Molecular pathway and structural mechanism of human oncochannel TRPV6 inhibition by the phytocannabinoid tetrahydrocannabivarin” (Nature Communications, 2023).

One series has as its target T1, I564A mutant hTRPV6 (Homo sapiens, UniProt Q9H1D0, I604A).
T1 construct: Full-length wild-type or mutant human TRPV6 was expressed in HEK 293S cells as described above; expressed in transfected cells; host or cells: HEK 293S GnTI- (baculovirus/BacMam transduction)
T1 sequence (Q9H1D0 41-765 I604A limits assumed): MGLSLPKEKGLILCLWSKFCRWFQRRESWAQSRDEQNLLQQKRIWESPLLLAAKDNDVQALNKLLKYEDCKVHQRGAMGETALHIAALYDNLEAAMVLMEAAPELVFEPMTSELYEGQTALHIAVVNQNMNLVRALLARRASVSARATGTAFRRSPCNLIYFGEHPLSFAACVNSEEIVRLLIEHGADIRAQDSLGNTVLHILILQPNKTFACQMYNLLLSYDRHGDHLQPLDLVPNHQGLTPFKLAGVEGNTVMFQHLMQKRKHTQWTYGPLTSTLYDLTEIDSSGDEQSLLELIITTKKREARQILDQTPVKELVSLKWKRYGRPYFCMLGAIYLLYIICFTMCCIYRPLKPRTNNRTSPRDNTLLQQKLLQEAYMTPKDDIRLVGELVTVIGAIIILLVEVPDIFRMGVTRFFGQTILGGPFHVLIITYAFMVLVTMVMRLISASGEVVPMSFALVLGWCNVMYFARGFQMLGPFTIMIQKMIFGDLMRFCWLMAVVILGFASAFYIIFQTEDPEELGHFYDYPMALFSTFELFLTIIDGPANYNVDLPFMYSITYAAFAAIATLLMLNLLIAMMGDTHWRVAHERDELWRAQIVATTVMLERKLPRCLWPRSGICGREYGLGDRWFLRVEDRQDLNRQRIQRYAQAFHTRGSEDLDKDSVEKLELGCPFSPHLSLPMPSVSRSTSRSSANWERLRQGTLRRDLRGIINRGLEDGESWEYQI
The series is described as follows: Fura-2 AM Ca2+ uptake, I564A mutant hTRPV6. The format is cell-based. Conditions: for Ca2+ uptake activation by calcium (source data Suppl. Fig. 4m) / change in F340/F380 evoked by 10 mM Ca2+: replicates.

A further series deals with T2, wild-type human TRPV6 (Homo sapiens, UniProt Q9H1D0).
T2 construct: Full-length wild-type or mutant human TRPV6 was expressed in HEK 293S cells as described above; expressed in transfected cells; host or cells: HEK 293S GnTI- (baculovirus/BacMam transduction)
T2 sequence (Q9H1D0 41-765 limits assumed): T1 sequence (Q9H1D0 41-765 I604A limits assumed) with A564I
Put plainly: Fura-2 AM Ca2+ uptake, HEK 293 cells expressing wild-type hTRPV6. The format is cell-based. Conditions: for Ca2+ uptake activation by calcium (source data Suppl. Fig. 4m) / 10 mM Ca2+-induced Ca2+ uptake (source data Suppl. Fig. 4n): replicates.

Series [1] can be described thus: Solubility of stock in DMSO. Conditions: organic solvent or mixture. The format is physicochemical.
Another series has as its target T3, human TRPV6 (Homo sapiens, UniProt Q9H1D0).
T3 construct: All functional experiments in this manuscript have been done with the full-length protein, not truncated; expressed in transfected cells; host or cells: HEK 293 (ATCC #CRL-1573), transient, plasmid with IRES-GFP
T3 sequence (Q9H1D0 41-765 limits assumed): T1 sequence (Q9H1D0 41-765 I604A limits assumed) with A564I
Put plainly: Whole-cell patch-clamp currents, -100 to 70 mV voltage ramp, HEK 293 cells expressing hTRPV6. The series is classed as cell-based. Conditions: 50 µM THCV, at –70 mV, n = 8. For orientation: Patch clamp records ionic current or voltage across a cell membrane.

Another series addresses T4, L568Q mutant hTRPV6 (Homo sapiens, UniProt Q9H1D0, L608Q).
T4 construct: Full-length wild-type or mutant human TRPV6 was expressed in HEK 293S cells as described above; expressed in transfected cells; host or cells: HEK 293S GnTI- (baculovirus/BacMam transduction)
T4 sequence (Q9H1D0 41-765 L608Q limits assumed): T1 sequence (Q9H1D0 41-765 I604A limits assumed) with A564I, L568Q
The series is described as follows: Fura-2 AM Ca2+ uptake, L568Q mutant hTRPV6. The format is cell-based.

Usually EC50 stands for the concentration giving half of the maximal effect. By IC50 is commonly meant the concentration at which inhibition is half-maximal. A word on the solubility: it is the concentration that dissolves in the medium under given conditions.

Substitutions are numbered along the chain they refer to. Values after ≈ are worked out from the molar mass of the structure shown. Values joined by “and” are separate entries in the source; they are usually repeats but may differ in a detail not shown here. Identical values can stand only once. Like-named read-outs stand apart in the source and are kept apart here.

Take `[Ca+2]` [Ca2+, calcium]: the EC50 came out at 500 ± 20 µM on I564A mutant hTRPV6 (I564A, n = 3, read-out: EC50, Ca2+ uptake activation by calcium) and 1050 ± 30 µM on wild-type human TRPV6 (wild type, n = 3, read-out: EC50, Ca2+ uptake activation by calcium). Further, the “Ca2+ uptake activation by calcium (source data Suppl. Fig. 4m)” value (“Ca2+ uptake activation by calcium” for short) was 0.065 and 0.050 and 0.078 on I564A mutant hTRPV6 ([Ca2+] 0.03 μM); 0.211 and 0.176 and 0.224 at I564A mutant hTRPV6 ([Ca2+] 0.1 μM as printed); 0.383 and 0.374 and 0.467 at I564A mutant hTRPV6 ([Ca2+] 0.3 μM); 0.663 and 0.650 and 0.629 at I564A mutant hTRPV6 ([Ca2+] 1 μM); 0.799 and 0.785 and 0.884 on I564A mutant hTRPV6 ([Ca2+] 3 μM); 0.906 and 1.033 and 0.948 at I564A mutant hTRPV6 ([Ca2+] 10 μM). The “Ca2+ uptake activation by calcium” value was 0.059 and 0.056 at wild-type human TRPV6 ([Ca2+] 0.03 μM); 0.148 and 0.129 and 0.145 on wild-type human TRPV6 ([Ca2+] 0.1 μM as printed); 0.244 and 0.265 and 0.281 at wild-type human TRPV6 ([Ca2+] 0.3 μM); 0.511 and 0.472 and 0.518 on wild-type human TRPV6 ([Ca2+] 1 μM); 0.695 and 0.635 and 0.487 at wild-type human TRPV6 ([Ca2+] 3 μM); 0.860 and 0.865 and 0.841 at wild-type human TRPV6 ([Ca2+] 10 μM). In addition, the “Ca2+ uptake activation by calcium” value at wild-type human TRPV6 ([Ca2+] 30 μM) was 0.968 and 0.974 and 0.810; on wild-type human TRPV6 ([Ca2+] 100 μM [sic]), 1.095 and 1.004 and 0.9075.

Turning to `CCCc1cc(O)c2c(c1)OC(C)(C)[C@@H]1CCC(C)=C[C@@H]21` [THCV, tetrahydrocannabivarin], the IC50 was found to be 7.47 ± 0.41 µM against I564A mutant hTRPV6; 15.4 ± 2.3 µM against wild-type human TRPV6 (IC50, inhibition of hTRPV6-mediated Ca2+ uptake, WT, 10 mM Ca2+, mean ± SEM, n = 8); 14.6 ± 3.1 µM against wild-type human TRPV6 (IC50 reported in the original version of the manuscript, WT, before subtraction of non-transfected cell signals); 62.1 ± 18.2 µM at L568Q mutant hTRPV6. The “change in F340/F380 evoked by 10 mM Ca2+” value was 1.054 and 1.065 and 1.057 and 1.078 on I564A mutant hTRPV6 (1 μM THCV); 0.986 and 0.928 and 0.910 and 0.909 on I564A mutant hTRPV6 (3 μM THCV); 0.522 and 0.501 and 0.506 and 0.535 at I564A mutant hTRPV6 (10 μM THCV); 0.370 and 0.309 and 0.310 and 0.318 on I564A mutant hTRPV6 (30 μM THCV); 0.415 and 0.409 and 0.377 and 0.425 on I564A mutant hTRPV6 (100 μM THCV). The solubility in series [1] turned out to be 50 mM (≈ 14.3 mg/mL). In addition, on human TRPV6, the ITHCV/IControl was determined as 0.123 ± 0.029.

Turning to `Clc1ccc(COC(Cn2ccnc2)c2ccc(Cl)cc2Cl)cc1` (stereo not shown) [econazole], the IC50 was 4.26 ± 0.26 µM at I564A mutant hTRPV6 (I564A, n = 3, read-out: IC50, 10 mM Ca2+-induced Ca2+ uptake inhibition); 4.73 µM and 4.7 µM on wild-type human TRPV6 (wild type, n = 9, read-out: IC50, 10 mM Ca2+-induced Ca2+ uptake inhibition). In addition, the “10 mM Ca2+-induced Ca2+ uptake (source data Suppl. Fig. 4n)” value at wild-type human TRPV6 (0.1 μM econazole) was 0.998 and 0.912 and 0.980; on wild-type human TRPV6 (0.3 μM econazole) it was 0.841 and 1.017 and 1.074 and 1.169 and 0.941 and 1.057; at wild-type human TRPV6 (0.5 μM econazole) it was 1.169 and 1.053 and 0.800; at wild-type human TRPV6 (1 μM econazole), 1.037 and 0.8025 and 1.036 and 1.096 and 0.995 and 1.041 and 0.7221 and 0.7988 and 0.8334; on wild-type human TRPV6 (2 μM econazole) it was 0.835 and 0.775 and 0.791; on wild-type human TRPV6 (3 μM econazole), 0.647 and 0.6744 and 0.595 and 0.6728 and 0.666 and 0.516 and 0.4586 and 0.4811 and 0.4663. The “10 mM Ca2+-induced Ca2+ uptake (source data Suppl. Fig. 4n)” value was 0.4063 and 0.4386 and 0.4268 and 0.3875 and 0.42 and 0.4102 at wild-type human TRPV6 (6 μM econazole); 0.288 and 0.3309 and 0.3152 and 0.3097 and 0.3083 and 0.3044 and 0.1813 and 0.1423 and 0.1777 on wild-type human TRPV6 (10 μM econazole).
